Test results: ChEMBL document CHEMBL1201862, “PubChem BioAssay data set” (2004)
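Cells were grown in 96-well plates and exposed to each compound for 48 hours at five concentrations; endpoints were interpolated linearly between bracketing concentrations, or set to the highest concentration if not reached. GI50 is the concentration that inhibits growth by half.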 Active and inactive are the calls of the source. Cut-off read from the data, not from the text of the source: active = GI50 up to about 1.1 µM and inactive = higher.

Key:
Test in all cases: DTP human tumour cell line panel, 48 h
[1] = test system: 786-0
[2] = test system: A498
[3] = test system: A549
[4] = test system: ACHN
[5] = test system: BT-549
[6] = test system: CAKI-1
[7] = test system: CCRF-CEM
[8] = test system: COLO 205
[9] = test system: DU-145
[10] = test system: EKVX
[11] = test system: HCC 2998
[12] = test system: HCT-116
[13] = test system: HCT-15
[14] = test system: HL-60
[15] = test system: HOP-62
[16] = test system: HOP-92
[17] = test system: HT-29
[18] = test system: Hs-578T
[19] = test system: IGROV-1
[20] = test system: K562
[21] = test system: KM12
[22] = test system: LOX IMVI
[23] = test system: M14
[24] = test system: MCF7
[25] = test system: MDA-MB-231
[26] = test system: MDA-MB-435
[27] = test system: MDA-N
[28] = test system: MOLT-4
[29] = test system: Malme-3M
[30] = test system: NCI-H226
[31] = test system: NCI-H23
[32] = test system: NCI-H460
[33] = test system: NCI-H522
[34] = test system: NCI/ADR-RES
[35] = test system: OVCAR-3
[36] = test system: OVCAR-4
[37] = test system: OVCAR-5
[38] = test system: OVCAR-8
[39] = test system: PC-3
[40] = test system: RPMI-8226
[41] = test system: RXF 393
[42] = test system: SF-268
[43] = test system: SF-295
[44] = test system: SF-539
[45] = test system: SK-MEL-28
[46] = test system: SK-MEL-2
[47] = test system: SK-MEL-5
[48] = test system: SK-OV-3
[49] = test system: SN12C
[50] = test system: SNB-19
[51] = test system: SNB-75
[52] = test system: SR
[53] = test system: SW-620
[54] = test system: T47D
[55] = test system: TK-10
[56] = test system: U-251
[57] = test system: UACC-257
[58] = test system: UACC-62
[59] = test system: UO-31

C[C@H](CCc1nc(C#N)c(N)o1)[C@H]1CC[C@H]2[C@@H]3CCC4C[C@@H](O)CC[C@]4(C)[C@H]3C[C@@H](O)[C@]12C (stereo partly drawn)
GI50 [1]: 10.8 µM (inactive)
GI50 [2]: 18.7 µM (inactive)
GI50 [3]: 5.89 µM (inactive)
GI50 [4]: 14.9 µM (inactive)
GI50 [5]: 2.65 µM (inactive)
GI50 [6]: 14.4 µM (inactive)
GI50 [7]: 0.143 µM (active)
GI50 [8]: 12.7 µM (inactive)
GI50 [9]: 14.5 µM (inactive)
GI50 [10]: 12.9 µM (inactive)
GI50 [11]: 16.6 µM (inactive)
GI50 [12]: 12.7 µM (inactive)
GI50 [13]: 14.7 µM
GI50 [14]: 0.475 µM (active)
GI50 [15]: 18.9 µM (inactive)
GI50 [16]: 14.4 µM (inactive)
GI50 [17]: 13.5 µM (inactive)
GI50 [18]: 8.55 µM (inactive)
GI50 [19]: 6.24 µM (inactive)
GI50 [20]: 4.46 µM (inactive)
GI50 [21]: 10.7 µM (inactive)
GI50 [22]: 7.71 µM (inactive)
GI50 [23]: 15.4 µM (inactive)
GI50 [24]: 14.6 µM (inactive)
GI50 [25]: 17.1 µM (inactive)
GI50 [26]: 15.1 µM (inactive)
GI50 [27]: 13.9 µM (inactive)
GI50 [28]: 4.02 µM (inactive)
GI50 [29]: 14.4 µM (inactive)
GI50 [30]: 8.38 µM (inactive)
GI50 [31]: 17.3 µM (inactive)
GI50 [32]: 14.6 µM (inactive)
GI50 [33]: 3.65 µM (inactive)
GI50 [34]: 8.49 µM (inactive)
GI50 [35]: 11.9 µM (inactive)
GI50 [36]: 1.03 µM (active)
GI50 [37]: 18.6 µM (inactive)
GI50 [38]: 4.56 µM (inactive)
GI50 [39]: 4.33 µM (inactive)
GI50 [40]: 1.73 µM (inactive)
GI50 [41]: 9.27 µM (inactive)
GI50 [42]: 11.3 µM (inactive)
GI50 [43]: 14.4 µM (inactive)
GI50 [44]: 10.2 µM (inactive)
GI50 [45]: 13.1 µM (inactive)
GI50 [46]: 16.3 µM (inactive)
GI50 [47]: 12.6 µM (inactive)
GI50 [48]: 14.3 µM (inactive)
GI50 [49]: 10.7 µM (inactive)
GI50 [50]: 16.4 µM (inactive)
GI50 [51]: 10.3 µM (inactive)
GI50 [52]: 3.05 µM (inactive)
GI50 [53]: 12.6 µM (inactive)
GI50 [54]: 14.5 µM (inactive)
GI50 [55]: 14.7 µM (inactive)
GI50 [56]: 12.5 µM (inactive)
GI50 [57]: 7.73 µM (inactive)
GI50 [58]: 12.1 µM (inactive)
GI50 [59]: 4.53 µM (inactive)

NCCC1([N+](=O)[O-])CCNCC1
GI50 [1]: > 100 µM (inactive)
GI50 [2]: > 100 µM (inactive)
GI50 [3]: > 100 µM (inactive)
GI50 [4]: > 100 µM (inactive)
GI50 [5]: > 100 µM (inactive)
GI50 [6]: > 100 µM (inactive)
GI50 [7]: > 100 µM (inactive)
GI50 [8]: > 100 µM (inactive)
GI50 [9]: > 100 µM (inactive)
GI50 [10]: > 100 µM (inactive)
GI50 [11]: > 100 µM (inactive)
GI50 [12]: > 100 µM (inactive)
GI50 [13]: > 100 µM
GI50 [14]: > 100 µM (inactive)
GI50 [15]: > 100 µM (inactive)
GI50 [16]: > 100 µM (inactive)
GI50 [17]: > 100 µM (inactive)
GI50 [18]: > 100 µM (inactive)
GI50 [19]: > 100 µM (inactive)
GI50 [20]: > 100 µM (inactive)
GI50 [21]: > 100 µM (inactive)
GI50 [22]: > 100 µM (inactive)
GI50 [23]: > 100 µM (inactive)
GI50 [24]: > 100 µM (inactive)
GI50 [25]: > 100 µM (inactive)
GI50 [26]: > 100 µM (inactive)
GI50 [27]: > 100 µM (inactive)
GI50 [28]: > 100 µM (inactive)
GI50 [29]: > 100 µM (inactive)
GI50 [30]: > 100 µM (inactive)
GI50 [31]: > 100 µM (inactive)
GI50 [32]: > 100 µM (inactive)
GI50 [33]: > 86.5 µM (inactive)
GI50 [34]: > 100 µM (inactive)
GI50 [35]: > 100 µM (inactive)
GI50 [36]: > 100 µM (inactive)
GI50 [37]: > 100 µM (inactive)
GI50 [38]: > 100 µM (inactive)
GI50 [39]: > 100 µM (inactive)
GI50 [40]: > 100 µM (inactive)
GI50 [41]: > 100 µM (inactive)
GI50 [42]: > 100 µM (inactive)
GI50 [43]: > 100 µM (inactive)
GI50 [44]: > 100 µM (inactive)
GI50 [45]: > 26.8 µM (inactive)
GI50 [46]: > 100 µM (inactive)
GI50 [47]: > 100 µM (inactive)
GI50 [48]: > 100 µM (inactive)
GI50 [49]: > 100 µM (inactive)
GI50 [50]: > 100 µM (inactive)
GI50 [51]: > 100 µM (inactive)
GI50 [52]: > 100 µM (inactive)
GI50 [53]: > 100 µM (inactive)
GI50 [54]: > 100 µM (inactive)
GI50 [55]: > 100 µM (inactive)
GI50 [56]: > 100 µM (inactive)
GI50 [57]: > 100 µM (inactive)
GI50 [58]: > 100 µM (inactive)
GI50 [59]: > 100 µM (inactive)
